Reference: patent publication US11696913B2, “Prolonged ectoparasite-controlling agent for animal” (MITSUI CHEMICALS AGRO, INC., priority 2017, dated 2023)
Like-named read-outs stand apart in the source and are kept apart here.

Columns and labels:
Ctenocephalides felis [1] = test: In vitro contact test with fleas; conditions: read-out: insecticidal activity; for pest or weed control at 0.2 µg/cm2, 0.2 µg/cm2: dose 0.2 μg/cm^2, dead or moribund fleas after 48 h; for pest or weed control at 1 µg/cm2, 1 µg/cm2: dose 1 μg/cm^2, dead or moribund fleas after 48 h
Summary of the method: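 Adult male and female cat fleas (5-10 per tube) placed in glass tubes coated with compound from acetone solution (900 ppm gives 5 μg/cm^2), kept at room temperature and ambient humidity. After 48 h, motionless or uncoordinated fleas scored dead or moribund; activity expressed as % dead or moribund.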

Amblyomma americanum = test: In vitro contact test with hard ticks (Amblyomma americanum nymphs); conditions: read-out: acaricidal activity; for pest or weed control at 0.2 µg/cm2, 0.2 µg/cm2: dose 0.2 μg/cm^2, 48 h; for pest or weed control at 1 µg/cm2, 1 µg/cm2: dose 1 μg/cm^2, 48 h
Summary of the method: (§1)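 Adult R. sanguineus, I. ricinus, D. variabilis or A. americanum nymphs exposed in glass vials coated with compound from acetone (900 ppm gives 5 μg/cm^2). Held 48 h at room temperature (R. sanguineus) or 21° C., 85% rel. hum.; then heated at 45-50° C. ≤5 min, motionless or uncoordinated ticks scored dead/moribund.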

Dermacentor variabilis = test: In vitro contact test with adult hard ticks (Dermacentor variabilis); conditions: read-out: acaricidal activity; for pest or weed control at 0.2 µg/cm2, 0.2 µg/cm2: dose 0.2 μg/cm^2, 48 h; for pest or weed control at 1 µg/cm2, 1 µg/cm2: dose 1 μg/cm^2, 48 h
Summary of the method: as §1

Ixodes ricinus = test: In vitro contact test with adult hard ticks (Ixodes ricinus); conditions: read-out: acaricidal activity; for pest or weed control at 0.2 µg/cm2, 0.2 µg/cm2: dose 0.2 μg/cm^2, 48 h; for pest or weed control at 1 µg/cm2, 1 µg/cm2: dose 1 μg/cm^2, 48 h; for pest or weed control at 5 µg/cm2, 5 µg/cm2: dose 5 μg/cm^2, 48 h
Method: In Vitro Contact Tests with Adult Hard Ticks
In vitro contact tests with ticks were conducted with adult males and females of Rhipicephalus sanguineus, Ixodes ricinus, or Dermacentor variabilis, or nymphs of Amblyomma americanum.
For the coating of the test vials, the test substance was dissolved and diluted in acetone p.a. to the desired concentration. The solution was then homogeneously applied to the inner wall and base of a glass vial by turning and rocking on an orbital shaker until complete evaporation of the solvent. For example, with a 900 ppm solution of test substance, an area-based dose of 5 μg/cm^2 was achieved.
After the solvent was completely evaporated, 5-10 adult ticks were put in each coated test vial, which was then sealed with a perforated plastic lid and incubated in a horizontal position in the dark at room temperature and ambient humidity (Rhipicephalus sanguineus) or in a climate-controlled cabinet (Ixodes ricinus, Dermacentor variabilis, Amblyomma americanum [21° C., 85% rel. hum.]). Acaricidal activity against the respective tick species was determined after 48 h. For this, ticks were collected to the base of the test vial by gentle knocking, and test vials were then incubated on a hotplate at 45-50° C. for no longer than 5 min. Ticks which remained motionless on the base of the test vial or moved uncoordinated without deliberately climbing up to avoid the heat were considered dead or moribund, respectively.
A substance was judged to have good acaricidal activity against the respective tick species when at least 80% of ticks were found dead or moribund at a dose of the substance of g/cm^2. An acaricidal activity of 100% means all ticks were dead or moribund. An acaricidal activity of 0% means none of the ticks was found dead or moribund.

Rhipicephalus sanguineus = test: In vitro contact test with adult hard ticks (Rhipicephalus sanguineus); conditions: read-out: acaricidal activity; for pest or weed control at 0.04 µg/cm2, 0.04 µg/cm2: dose 0.04 μg/cm^2, 48 h; for pest or weed control at 0.2 µg/cm2, 0.2 µg/cm2: dose 0.2 μg/cm^2, 48 h; for pest or weed control at 1 µg/cm2, 1 µg/cm2: dose 1 μg/cm^2, 48 h
Summary of the method: as §1

[2] = system: Rhipicephalus (Boophilus) microplus; test: In vitro injection test with Rhipicephalus (Boophilus) microplus (BOOPMI Inj); conditions: 168 h, laid fertile eggs after 7 days, read-out: acaricidal activity; for pest or weed control at 32 ng: dose 0.032 μg/animal injected; for pest or weed control at 0.00016 mg: dose 0.16 μg/animal injected; for pest or weed control at 0.0008 mg: dose 0.8 μg/animal injected
Summary of the method: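 Test substance in DMSO; 1 μl injected into abdomen of each of 5 engorged adult female ticks, then held at 28° C., 85% rel. hum. Activity scored after 7 days from laying of fertile eggs: 100% = no eggs or all infertile, 0% = all eggs fertile.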

Ctenocephalides felis [3] = test: Ctenocephalides felis in-vitro feeding test with fleas (CTECFE oral); conditions: 48 hours, read-out: insecticidal feeding activity; for pest or weed control at 0.16 ppm: dose 0.16 ppm in citrated cattle blood; for pest or weed control at 0.8 ppm: dose 0.8 ppm in citrated cattle blood; for pest or weed control at 4 ppm: dose 4 ppm in citrated cattle blood
Summary of the method: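 About 20 unfed adult cat fleas fed through parafilm on citrated cattle blood containing test substance (DMSO solution diluted in blood), held at about 37° C. Kill rate scored after 48 hours, 100% meaning all fleas dead.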

Ctenocephalides felis [4] = test: Systemic treatment in-vivo test with cat flea on rats; conditions: intraperitoneal injection, 5 mg/kg; for inhibition in vivo at 5 mg/kg: Ctenocephalides felis, ip
Method: Systemic Treatment In-Vivo Test with American Dog Tick Nymph and Cat Flea on Rats
Type of study and overall study design: The method is a randomized non-blinded efficacy study in accordance with European animal welfare requirements. Rats (Rattus norvegicus) were randomized based on pre-treatment flea counts. The efficacy of treatment was determined by comparison of the flea and tick counts of different treatment groups versus the placebo-treated control group. The experimental unit was the individual study animal. Method and route of administration: The compound was applied in a suitable solvent and carrier (more specifically, added to glycerol formal; in case of poorly soluble compounds, a solvent mixture with up to 25% by volume of N-methyl pyrrolidone may be used.) considering the individual body weight as an intraperitoneal injection.
Experimental infestation: On the day of treatment and weekly thereafter, 30 ticks (D. variabilis nymphs) were released onto the back of each rat, and 30 fleas (C. felis) were released onto the back of each rat 24 h later.
Tick and Flea counting: Rats were thoroughly examined and ticks and fleas were manually removed 48 h (±4 h) after tick infestation and 24 h after flea infestation. Live fleas and live attached engorged ticks were counted. In non-evident cases, engorgement status was evaluated by squeezing the tick on a filter paper to find traces of blood as sign for engorgement.

Spodoptera litura = test: Insecticidal testing against common cutworm; assay type: in vivo; conditions: foliar, 144 h, concentration 100 ppm, cabbage leaf dip, second-stage larvae, after 6 days, read-out: pesticidal rate
Description: Insecticidal Testing Against Common Cutworm (Spodoptera litura)

Plutella xylostella = test: Insecticidal testing against diamondback moth; assay type: in vivo; conditions: foliar, 144 h, concentration 100 ppm, cabbage leaf dip, third-stage larvae, after 6 days, read-out: pesticidal rate
Description: Insecticidal Testing Against Diamondback Moth (Plutella xylostella)

Compound	pest or weed control at 1 µg/cm2, 1 µg/cm2 (Ctenocephalides felis [1]) [%]	pest or weed control at 0.00016 mg [2] [%]	pest or weed control at 0.0008 mg [2] [%]	pest or weed control at 0.16 ppm (Ctenocephalides felis [3]) [%]	pest or weed control at 0.8 ppm (Ctenocephalides felis [3]) [%]	pest or weed control at 4 ppm (Ctenocephalides felis [3]) [%]	pest or weed control at 100 ppm (Spodoptera litura) [%]	pest or weed control at 100 ppm (Plutella xylostella) [%]	further results
O=C(Nc1cccc(C(=O)Nc2c(I)cc(C(F)(C(F)(F)F)C(F)(F)C(F)(F)F)cc2C(F)(F)F)c1F)c1ccc(F)cc1 (stereo not drawn) [Compound 35]	95	100	100	95	95	95			pest or weed control at 0.2 µg/cm2, 0.2 µg/cm2 (Ctenocephalides felis [1]): 95%; pest or weed control at 0.04 µg/cm2, 0.04 µg/cm2 (Amblyomma americanum; dose 0.04 μg/cm^2, 48 h): 90%; pest or weed control at 0.2 µg/cm2, 0.2 µg/cm2 (Amblyomma americanum): 90%; pest or weed control at 1 µg/cm2, 1 µg/cm2 (Amblyomma americanum): 90%; pest or weed control at 0.2 µg/cm2, 0.2 µg/cm2 (Dermacentor variabilis): 90%; pest or weed control at 1 µg/cm2, 1 µg/cm2 (Dermacentor variabilis): 90%; pest or weed control at 0.2 µg/cm2, 0.2 µg/cm2 (Ixodes ricinus): 90%; pest or weed control at 1 µg/cm2, 1 µg/cm2 (Ixodes ricinus): 90%; pest or weed control at 5 µg/cm2, 5 µg/cm2 (Ixodes ricinus): 90%; pest or weed control at 0.04 µg/cm2, 0.04 µg/cm2 (Rhipicephalus sanguineus): 90%; pest or weed control at 0.2 µg/cm2, 0.2 µg/cm2 (Rhipicephalus sanguineus): 90%; pest or weed control at 1 µg/cm2, 1 µg/cm2 (Rhipicephalus sanguineus): 90%; pest or weed control at 6.4 ng ([2]; dose 0.0064 μg/animal injected): 100%; pest or weed control at 32 ng [2]: 100%; pest or weed control at 0.032 ppm (Ctenocephalides felis [3]; dose 0.032 ppm in citrated cattle blood): 95%
O=C(Nc1cccc(C(=O)Nc2c(Br)cc(C(F)(C(F)(F)F)C(F)(F)C(F)(F)F)cc2C(F)(F)F)c1F)c1ccc(F)cc1 (stereo not drawn) [Compound 36]	95	100	100	95	95	95			pest or weed control at 0.04 µg/cm2, 0.04 µg/cm2 (Ctenocephalides felis [1]; dose 0.04 μg/cm^2, dead or moribund fleas after 48 h): 95%; pest or weed control at 0.2 µg/cm2, 0.2 µg/cm2 (Ctenocephalides felis [1]): 95%; pest or weed control at 0.2 µg/cm2, 0.2 µg/cm2 (Amblyomma americanum): 90%; pest or weed control at 1 µg/cm2, 1 µg/cm2 (Amblyomma americanum): 90%; pest or weed control at 0.2 µg/cm2, 0.2 µg/cm2 (Dermacentor variabilis): 90%; pest or weed control at 1 µg/cm2, 1 µg/cm2 (Dermacentor variabilis): 90%; pest or weed control at 0.2 µg/cm2, 0.2 µg/cm2 (Ixodes ricinus): 90%; pest or weed control at 1 µg/cm2, 1 µg/cm2 (Ixodes ricinus): 90%; pest or weed control at 5 µg/cm2, 5 µg/cm2 (Ixodes ricinus): 90%; pest or weed control at 0.04 µg/cm2, 0.04 µg/cm2 (Rhipicephalus sanguineus): 90%; pest or weed control at 0.2 µg/cm2, 0.2 µg/cm2 (Rhipicephalus sanguineus): 90%; pest or weed control at 1 µg/cm2, 1 µg/cm2 (Rhipicephalus sanguineus): 90%; pest or weed control at 32 ng [2]: 100%; pest or weed control at 0.0064 ppm (Ctenocephalides felis [3]; dose 0.0064 ppm in citrated cattle blood): 95%
CCN(C(=O)c1ccc(F)cc1)c1cccc(C(=O)Nc2c(I)cc(C(F)(C(F)(F)F)C(F)(F)F)cc2C(F)(F)F)c1F [Compound 43]									inhibition in vivo at 5 mg/kg (Ctenocephalides felis [4]; SD 2, read-out: Geometric mean percent reduction in live flea (Ctenocephalides felis) counts compared to untreated control rats): 100%; inhibition in vivo at 5 mg/kg (Ctenocephalides felis [4]; SD 9, read-out: Geometric mean percent reduction in live flea (Ctenocephalides felis) counts compared to untreated control rats): 99%; inhibition in vivo at 5 mg/kg (Ctenocephalides felis [4]; SD 16, read-out: Geometric mean percent reduction in live flea (Ctenocephalides felis) counts compared to untreated control rats): 90%; inhibition in vivo at 5 mg/kg (Ctenocephalides felis [4]; SD 23, read-out: Geometric mean percent reduction in live flea (Ctenocephalides felis) counts compared to untreated control rats): 91%; inhibition in vivo at 5 mg/kg (Ctenocephalides felis [4]; SD 30, read-out: Geometric mean percent reduction in live flea (Ctenocephalides felis) counts compared to untreated control rats): 13%
CN(C(=O)c1ccc(S(N)(=O)=O)cc1)c1cccc(C(=O)Nc2c(I)cc(C(F)(C(F)(F)F)C(F)(F)F)cc2C(F)(F)F)c1F [Compound 45]		100	100	95	95	95	≥ 70	≥ 70	
CN(C(=O)c1ccc(C(N)=O)cc1)c1cccc(C(=O)Nc2c(I)cc(C(F)(C(F)(F)F)C(F)(F)F)cc2C(F)(F)F)c1F [Compound 48]	95	100	100	95	95	95	≥ 70	≥ 70	
COc1ccc(C(=O)N(C)c2cccc(C(=O)Nc3c(I)cc(C(F)(C(F)(F)F)C(F)(F)F)cc3C(F)(F)F)c2F)cc1OC [Compound 50]						95	≥ 70	≥ 70	
CN(C(=O)c1ccc2c(c1)CCCC2)c1cccc(C(=O)Nc2c(I)cc(C(F)(C(F)(F)F)C(F)(F)F)cc2C(F)(F)F)c1F [Compound 52]	95		100			95	≥ 70	≥ 70	
CN(C(=O)c1ccc2c(c1)OCO2)c1cccc(C(=O)Nc2c(I)cc(C(F)(C(F)(F)F)C(F)(F)F)cc2C(F)(F)F)c1F [Compound 55]	95					95	≥ 70	≥ 70	pest or weed control at 0.2 µg/cm2, 0.2 µg/cm2 (Ctenocephalides felis [1]): 95%
O=C(Nc1cccc(C(=O)Nc2c(I)cc(C(F)(C(F)(F)F)C(F)(F)F)cc2C(F)(F)F)c1F)c1ccc(C(F)(F)F)nc1C(F)(F)F [Compound 112]			100	95	95	95	≥ 70	≥ 70	
O=C(Nc1cccc(C(=O)Nc2c(I)cc(C(F)(C(F)(F)F)C(F)(F)F)cc2C(F)(F)F)c1F)c1cnc(C(F)(F)F)nc1 [Compound 114]			100	95	95	95	≥ 70	≥ 70	
Cc1cc(C2=NOC(c3cc(Cl)cc(Cl)c3)(C(F)(F)F)C2)ccc1C(=O)NCC(=O)NCC(F)(F)F (stereo not drawn) [Fluralaner, fluralaner, reference compound]									Geometric mean percent reduction in live flea (Ctenocephalides felis) counts compared to untreated control rats (Ctenocephalides felis [4]; SD 2): 100%; Geometric mean percent reduction in live flea (Ctenocephalides felis) counts compared to untreated control rats (Ctenocephalides felis [4]; SD 9): 100%; Geometric mean percent reduction in live flea (Ctenocephalides felis) counts compared to untreated control rats (Ctenocephalides felis [4]; SD 16): 51%; Geometric mean percent reduction in live flea (Ctenocephalides felis) counts compared to untreated control rats (Ctenocephalides felis [4]; SD 23): 7%
